The values that follow come from a melting point compilation (Tetko et al.; mined from patent text by program, amines drawn as free bases though some values may be those of a salt).

In general, melting point refers to the temperature, or range, at which the solid turns liquid. In turn, `O=C(O)CNC(=O)Nc1cccc(C(=O)O)c1` showed a melting point of 196 to 197 °C.

As for `Cc1nc(N2CCN(CCC3CC3)C2=O)sc1C(=O)NCc1ccc(F)cc1`, the melting point is 122 to 123 °C.

Regarding `CC(=O)OC1CCC2(C)C(CCC3=C4C(=O)CC(C(C)CCCC(C)(C)O)C4(C)CCC32)C1` (stereo not given), the melting point was 151 to 152 °C.

Compound `CN1C2CCCC1CC(NC(=O)c1cccc3nc(-c4ccc(Cl)cc4)oc13)C2` (stereo not given) showed a melting point of 193 to 196 °C.

The compound `Nc1ccc(CN2CCSC2)cc1` displayed a melting point of 73 to 74 °C.

In turn, `Cc1cc(N)nc(/C=C/c2nc3cc(Br)cnc3[nH]2)c1` came in with a melting point of 280 °C.

`Cc1cc(-n2ccc(=O)[nH]c2=O)cc(Cl)c1S(=O)(=O)c1ccc(Cl)cc1` showed a melting point of 235 to 242 °C.

Compound `COc1cc2cn(-c3c(C)c(C)c4c(c3C)C(c3ccc(C)cc3)C(C)(C)O4)cc2cc1OC` (stereo not given) gave a melting point of 146 to 147 °C.

In the case of `COc1ccc(S(N)(=O)=O)cc1C(O)CN=[N+]=[N-]` (stereo not given), the melting point was 122 °C.

As to `CCOC(=O)c1ncn(C)c1N`, the melting point lay in the range of 193 to 194 °C.

Take `CC(C)n1c(C=O)c(-c2ccc(F)cc2)c(-c2ccccc2)c1C(=O)Nc1cccc(S(N)(=O)=O)c1`: the melting point is 224 to 225 °C.

Regarding `COc1ccc(Cc2nc3cccc(NCc4ncc[nH]4)c3o2)cc1OC1CCCC1`, the melting point fell in the range of 179 to 180 °C.

`CCCN(CCC)C1Cc2cccc3c2N(C1)C(=O)C3` (stereo not given) yielded a melting point of 86 to 88 °C.

In the case of `COC(=O)c1ccccc1NC(=O)c1cnc(S(C)(=O)=O)nc1`, the melting point lay in the range of 187 to 189 °C.

As to `CN(C)c1c(-c2ccccc2)sc2ccccc12`, the melting point lay in the range of 84 to 86 °C.

`O=C(Nc1cccc(C(F)(F)F)c1)Nc1ccc2c(c1)OC(F)(F)O2`: the melting point lay within 187 to 191 °C.

`CC(=O)NNc1ccnc2c(NC(=O)c3c(Cl)cccc3Cl)ccc(C)c12`: the melting point is 230 to 234 °C.

`CCCCCCNC(=O)n1nc(Oc2ncc(C(F)(F)F)cc2Cl)c(Cl)c1C` returned a melting point of 57 to 59 °C.

The compound `CCCc1nc2c(N)nc3cc(OCCCN)ccc3c2n1CC(C)C` registered a melting point of 173 to 174 °C.

Regarding `CCCc1nn(C)c2c(OCCOc3ccc(CC(OCC)C(=O)O)cc3)nc(CC)nc12` (stereo not given), the melting point fell in the range of 140 to 142 °C.

As to `Cc1ccc(C(=O)CCCCC(=O)O)cc1`, the melting point fell in the range of 147 to 148 °C.

As to `CC(=O)NCC1CC1c1cccc2nc(C)sc12` (stereo not given), the melting point was in the range of 96 to 98 °C.

For the compound `Nc1nc2[nH]c(CCCc3csc(C(=O)O)c3)cc2c(=O)[nH]1`, the melting point lay within 181 to 182 °C.

As to `COC(=O)C(C)(SC)c1ccc(N2C(=O)c3ccccc3C2=O)cc1` (stereo not given), the melting point lay in the range of 142 to 145 °C.

The compound `O=Cc1cn(-c2ccccc2)nc1O` came in with a melting point of 196 to 197 °C.

`O=[N+]([O-])c1ccccc1Nc1ccc(-c2ccc(Nc3ccccc3[N+](=O)[O-])cc2)cc1` gave a melting point of 211 to 222 °C.

`CC(C)NC(=O)CN1CCN(CCc2ccc(-c3cccc(N)n3)cc2)CC1` returned a melting point of 163 to 165 °C.

`CCCN(CCC)C(=O)N1CCc2ccc(S(=O)(=O)NC(=O)NC3CCCCC3)cc2CC1` showed a melting point of 179 to 180 °C.

Turning to `COc1ccc2c(n1)c(CC[N+](=O)[O-])c1n2CCCC1`, the melting point fell in the range of 96 to 97 °C.

In the case of `O=C(Nc1nc2ccc(OCc3c(Cl)cccc3Cl)cc2s1)C1CC1`, the melting point is 178 °C.

On to `CC(=O)NC(CSC(=O)C(C)C)C(=O)NCCSC(C)=O` (stereo not given), for which the melting point was in the range of 116 to 118 °C.

`CCCCCC(=O)NN` gave a melting point of 72.5 to 73.9 °C.

As to `C=CCOC(=O)c1ccc(NC(C)=O)cc1O`, the melting point was in the range of 156 to 158 °C.

`O=c1c2n[nH]c3ccc(Cl)cc3c-2nn1-c1ccccc1`: the melting point is greater than 280 °C.

In turn, `CCCCc1nn(-c2cc(NC(C)=O)ccc2Cl)c(=O)n1Cc1ccc(-c2cc(CCC)ccc2S(=O)(=O)NC(=O)c2ccccc2Cl)cc1F` came in with a melting point of 144 to 146 °C.

Compound `CC(C)(C)OC(=O)N[C@H]1CC[C@H](CC(=O)O)CC1` yielded a melting point of 161 to 163 °C.

Compound `COC(=O)/C(=C/c1cccc(OC)c1)c1cc(OC)c(OC)c(OC)c1` showed a melting point of 87 to 88 °C.

The compound `O=C(CSc1c(O)cc(-c2ccccc2)oc1=O)c1ccccc1` registered a melting point of 164 to 166 °C.

Consider `CCCCOCCOc1ccc(-c2ccc3c(c2)C=C(C(=O)O)CCN3c2ccccc2)cc1`, for which the melting point fell in the range of 129 to 131 °C.

The compound `CCn1cc(C(=O)O)c(=O)c2c(C)c(F)c(N3CCNCC3)c(F)c21` had a melting point of 223 to 225 °C.

Turning to `NC(=O)c1cccc(N)c1N`, the melting point was 103 to 105 °C.

`Cc1cc(C(=O)O)c(O)cc1C(N)C(=O)O` (stereo not given) showed a melting point greater than 250 °C.

With `CC(C)(C)c1cc(CCc2ccccc2NC(=O)NC2CCN(CCc3ccccc3)CC2)cc(C(C)(C)C)c1O`, the melting point lay within 175 to 176 °C.

For `CCOCc1cc2cc(Br)ccc2oc1=Nc1ccc(OC)cc1`, the melting point lay within 134 to 135 °C.

With `CC(C)(C)OC(=O)N1CCC(c2nc3cc(-c4ccc(C#N)c(F)c4)ccc3o2)CC1`, the melting point is 138 to 142 °C.

Consider `CN1CCN(c2ccnc3c(NC(=O)c4c(Cl)cccc4Cl)cccc23)C1=O`, for which the melting point was in the range of 238 to 242 °C.

In turn, `CC(=O)NCc1cccc2c1C(=O)N(C1CCC(=O)NC1=O)C2=O` (stereo not given) had a melting point of 177 to 179 °C.

`Cc1oc(-c2ccccc2)nc1COc1ccc(COc2ccc(OCc3ccccc3)cc2CC#N)cc1` displayed a melting point of 130 to 131 °C.

With `CN(C)C=Nc1ccncc1O`, the melting point lay in the range of 121 to 123 °C.

`CC1Oc2c(Cc3ccccc3)cc(CN3CCN(c4ccc(C(=O)NC5CC5)cc4)CC3)cc2NC1=O` (stereo not given) gave a melting point of 192 to 203 °C.

As for `CC(C)(C)OC(=O)Nc1cc(OC(C)(C)C)c(-c2ccccc2F)cc1NC(=O)CC(=O)c1cccc(-n2ccnn2)c1`, the melting point lay within 47 to 50 °C.

`CC(=O)SCC(CC(C)C)C(=O)Nc1cccc(C(=O)O)c1C` (stereo not given) displayed a melting point of 154 to 156 °C.

`COC(=O)c1ccccc1S(=O)(=O)NCC(=O)Nc1cc(C)on1`: the melting point was 153 to 156 °C.

On to `COC(=O)Cn1c(=O)[nH]c2ccccc2c1=O`, for which the melting point was 205 to 206 °C.

Compound `Nc1ccc2oc3c(c2c1)CCCCC3` showed a melting point of 98 to 99 °C.

`C[C@@H](NC(=O)OC(C)(C)C)C(=O)NCCCN1CCN(CCCNc2cccc3c2C(=O)c2ccccc2C3=O)CC1` registered a melting point of 78 to 80 °C.

`N#Cc1ccc(-c2csc(N3C(=O)OCC34CC4)n2)cc1` came in with a melting point of 219 to 221 °C.

Compound `CC(C)OC(=O)c1cc(-n2c(=O)[nH]c3c(c2=O)CCC3)c(Cl)cc1Br` gave a melting point of 208 to 210 °C.

On to `Cc1oc(-c2ccccc2)nc1COc1ccc(CON=C(CCC(=O)O)c2ccncc2)cc1`, for which the melting point lay within 161 to 162 °C.

In turn, `COC(=O)Cc1nc(-c2ccc(OC)c(OC)c2)c2cc(OC)c(OC)cc2n1` showed a melting point of 152 to 153 °C.

With `CC(C)(C)OCC1CNC(=O)O1` (stereo not given), the melting point fell in the range of 57 to 65 °C.

On to `O=Cc1ccc(O)c2oc3ccc([N+](=O)[O-])cc3c12`, for which the melting point is greater than 270 °C.

`CC1(C)Cc2c(c(N3CCCC3)nc3sc4c(NCc5ccc(S(C)(=O)=O)cc5)ncnc4c23)CO1` yielded a melting point of 324 to 326 °C.

Regarding `CCOC(=O)c1cn(OC)c2nc3cc(N4CC(NC)C4)c(F)cc3cc2c1=O`, the melting point was 234 °C.

As to `CCOC(=O)c1[nH]c2cc(Cl)cc(Cl)c2c1NCCC(=O)c1ccccc1Cc1ccccc1`, the melting point was in the range of 208 to 209 °C.

Regarding `CSC[C@H](C)NC(=O)c1c(Cl)cccc1C(=O)Nc1ccc(Cn2nc(C(F)(F)F)cc2C(F)(F)F)nc1C`, the melting point was determined as 92 °C.

`Cn1c(Br)c(C#N)c(C(F)(F)F)c1Br` had a melting point of 101 to 104 °C.

With `Cc1cc2c(F)c(Oc3cc(Cl)nc(N)n3)ccc2[nH]1`, the melting point was in the range of 255 to 258 °C.

With `CC1(C)CC(c2ccc(F)cc2)=C(c2ccc(S(N)(=O)=O)cc2)C1`, the melting point was in the range of 117 to 118 °C.

`CCOC(=O)c1cnc2n(c1=O)-c1ccccc1N(C=O)C2` showed a melting point of 172 to 174 °C.

Turning to `N#Cc1ccccc1C(=O)c1ccccc1S`, the melting point is 94 °C.

In the case of `Oc1cccc(-c2nc3n(n2)Cc2ccccc2-3)c1`, the melting point was in the range of 251 to 252 °C.

`C[C@@H]1CN(c2ncc3ncnc(Nc4ccc(F)c(Cl)c4)c3n2)CC[C@@H]1N` (relative stereo) gave a melting point of 161 to 164 °C.

With `O=C(O)c1ccccc1C(=O)c1c(-c2ccccc2)[nH]c2ccccc12`, the melting point is 106 to 107 °C.

`CC(C)(C)c1cc(OCc2ccc(C#N)cc2)cc(C(C)(C)C)c1` gave a melting point of 118 to 121 °C.

For `Cc1cccc(C)c1NC(=O)c1ccc(Cl)nc1`, the melting point was 165 to 166 °C.

As for `C=CCSC(c1ccccc1)(c1ccccc1)c1ccccc1`, the melting point fell in the range of 99 to 101 °C.

For the compound `CC(C)c1cccc2c1C(=O)N(COC(=O)c1c(Cl)ccc(O)c1Cl)S2(=O)=O`, the melting point fell in the range of 78 to 80 °C.

As for `Cc1ccc(-c2ccccc2)cc1CNC(=O)N(C)N`, the melting point was determined as 91.6 °C.

`O=S(=O)(CCc1ccc(Cl)cc1)CCc1ccc(Cl)cc1` gave a melting point of 42 to 43 °C.

Consider `CC(C)N(C=O)C(=O)c1nc(Cl)c(Cl)[nH]1`, for which the melting point was found to be 142 °C.

Regarding `O=C(Nc1ccccc1N1CCc2ccccc21)C1CCCCC1`, the melting point lay in the range of 87 to 89 °C.

Compound `CCCc1cc(O)ccc1-c1noc2cc(O)ccc12` displayed a melting point of 189 to 191 °C.

Compound `CCOC(=O)Cc1nc(-c2ccc(Cl)cc2)oc1Oc1ccc(Cl)cc1` showed a melting point of 70 to 72 °C.

With `CCNC(CO)Cc1cc(OC)cc(OC)c1` (stereo not given), the melting point lay in the range of 82 to 83 °C.

`Nc1cscc1NC(=S)Nc1c(Cl)cccc1Cl` returned a melting point of 165 °C.

`CC1(c2ccccc2)Cc2cc(O)c(Cl)c(Cl)c2C1=O` (stereo not given) registered a melting point of 194 to 196 °C.

Turning to `N#CSc1nc(Cl)ncc1Cl`, the melting point was in the range of 160 to 162 °C.

`NC(=O)c1ccc(CCn2ccn(C3CCc4ccccc4C3)c2=S)cc1` (stereo not given) displayed a melting point of 158 to 160 °C.

`CCS(=O)(=O)c1ccc(N)cc1S(=O)(=O)NC(C)(C)C` returned a melting point of 193 to 195 °C.
